# Test results from patent US8568690B2, “MRI contrast agents and high-throughput screening by MRI” (The Board of Trustees of the University of Illinois, priority 2007, dated 2013).
# Columns and labels:
# [1] = tested on: adenosine aptamer (linker-Adap) CLIO sensor; assay: Adenosine aptamer CLIO sensor, T2 weighted MRI and T2 relaxation time; assay type: binding; settings: for change in contrast of sensor (selectivity control): sensor incubated with 5 mM nucleoside
# Description: SPIO nanoparticles were chosen as the contrast agents to functionalize by aptamers since it is efficient at dephasing the spins of neighboring water protons, leading to change in T2 [36, 37]. It has also been shown that oligonucleotide functionalized cross-linked dextran coated superparamagnetic iron oxide nanoparticles (CLIOs) form clusters when linked with a complementary sequence. The adenosine sensor comprised CLIO aggregates that are prepared using three components: CLIO functionalized with 3′- or 5′-thiol modified DNA, called 3′Adap-CLIO and 5′Adap-CLIO respectively and a linker DNA, called linker-Adap that can hybridize to both the 3′- and 5′Adap-CLIOs, leading to the formation of clusters.
# One segment of the linker is the sequence for the adenosine aptamer. Seven bases of this aptamer are involved in the hybridization with the 5′Adap-CLIO. In the presence of adenosine the aptamer undergoes structure switching in order to form the adenosine binding pocket, which results in disruption of base pairing interactions with 5′Adap-CLIO. The five remaining base pairs between the linker-Adap and the 5′Adap-CLIO are not enough to hold them together at room temperature leading to disassembly of clusters. The dispersed nanoparticles result in a higher T2 as compared to the clusters; and thus the adenosine induced disassembly can be monitored as an increase in T2 values and enhancement in brightness of T2 weighted MRI images.
# The prepared sensor was then aliquoted into the wells of a microplate, with progressively increasing amount of adenosine and a T2 weighted MRI image was obtained. An increase in adenosine concentration led to an increase in the brightness of the image, as illustrated in line a) of FIG. 6. This increase was attributed to the increase in T2 due to disassembly of CLIO clusters into smaller particles. It is worth noting that even at 10 μM adenosine a detectable change in contrast was observed.
# 250 μl of sample was aliquoted into the wells of a microplate and varying amounts of adenosine was added in each well. The samples with serum were prepared by adding 10% human serum. Volume change was compensated by addition of distilled water.
# [2] = target: Adenosine Deaminase (ADA) (Bos taurus, UniProt P56658); settings: adenosine and test molecule, tris-acetate buffer pH 8.0 (FIG. 19) and human serum (FIG. 20)
# Chain of Adenosine Deaminase (ADA) (P56658 whole entry): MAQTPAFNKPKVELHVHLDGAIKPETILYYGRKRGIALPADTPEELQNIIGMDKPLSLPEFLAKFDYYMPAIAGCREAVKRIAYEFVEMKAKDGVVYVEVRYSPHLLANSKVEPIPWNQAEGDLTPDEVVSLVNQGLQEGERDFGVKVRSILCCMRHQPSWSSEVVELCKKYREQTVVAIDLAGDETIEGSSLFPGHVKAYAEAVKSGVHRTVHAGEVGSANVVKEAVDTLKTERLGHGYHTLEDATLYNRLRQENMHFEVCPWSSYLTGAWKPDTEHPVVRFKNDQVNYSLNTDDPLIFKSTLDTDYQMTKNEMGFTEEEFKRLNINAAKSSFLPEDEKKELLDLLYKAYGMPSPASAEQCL
# Description: The screening of ADA inhibitors can be monitored with an aptamer system whereby an MRI signal is generated when a molecule inhibits the ADA.
# For example, an aggregate of paramagnetic particles can be used to monitor the screening. To this end, a mixture including paramagnetic particles that are attached to oligonucleotides is prepared. A bridge including an aptamer that binds adenosine is also present in the mixture. If the tested molecule is not effective in inhibiting ADA, adenosine is transformed into inosine, and the complementary portions of the oligonucleotides are hybridized to the bridge. Aggregation of the particles into an aggregate follows, and an increase in MRI contrast is not observed.
# The resulting dehybridization leads to deaggregation of the aggregate, generating an MRI signal (FIG. 18).
# The screening was monitored by incubating with aggregates that included CLIO nanoparticles attached to polynucleotides and a bridge comprising an ADA-binding aptamer. The screening of FIG. 19 was carried out in the presence of tris-acetate buffer at pH 8.0. […]
# T2-weighted MRI images were obtained on a 4.7 T NMR instrument using a spin echo pulse sequence with variable echo time (TE=20−100 ms) and a repetition time (TR) of 2000 ms. Relaxation times were measured on the same instrument with the Carr-Purcell-Meiboom-Gill (CPMG) pulse sequence.
molecule,measurement,setting,value
O=c1ccn([C@@H]2O[C@H](CO)[C@@H](O)[C@H]2O)c(=O)[nH]1 [uridine],change in contrast of sensor (selectivity control),[1],a significant change in contrast was not observed
erythro-9-(2-hydroxy-3-nonyl)adenine hydrochloride [EHNA],ADA inhibition read as deaggregation of aggregates / increase in MRI brightness,[2],inhibited the conversion of adenosine into inosine
Nc1nc2c(ncn2[C@@H]2O[C@H](CO)[C@@H](O)[C@H]2O)c(=O)[nH]1 [guanosine],change in contrast of sensor (selectivity control),[1],a significant change in contrast was not observed
"Nc1ncnc2c1ncn2[C@@H]1O[C@H](CO)[C@@H](O)[C@H]1O [adenosine, Adenosine]",MRI contrast of sensor in serum,"[1]; 10% human serum, adenosine concentration gradient",the contrast within the concentration gradient increases
same,adenosine concentration at which a detectable change in contrast was observed,"[1]; T2 weighted MRI image, sensor ~20 μg Fe ml-1",10 µM
same,T2 relaxation time of sensor,"[1]; at 2.5 Mm adenosine, 36 ms at 0 adenosine",63 ms
"Nc1ccn([C@@H]2O[C@H](CO)[C@@H](O)[C@H]2O)c(=O)n1 [control molecule 37, Cytidine]",change in contrast of sensor (selectivity control),[1],a significant change in contrast was not observed
